Test results taken from ChEMBL document CHEMBL1212921, “Design, synthesis, enzyme-inhibitory activity, and effect on human cancer cells of a novel series of jumonji domain-containing protein 2 histone demethylase inhibitors” (J Med Chem, 2010).
Active and inactive are the calls of the source. The calls are words filed in the database; no cut-off is given here.

Legend:
[1] = target: T1, Lysine-specific demethylase 4A (Homo sapiens, UniProt O75164); experiment: Inhibition of recombinant His-tagged JMJD2A expressed in Escherichia coli Rosetta 2 (DE3) pLysS cells by formaldehyde dehydrogenase-coupled assay
T1 sequence (O75164 whole entry): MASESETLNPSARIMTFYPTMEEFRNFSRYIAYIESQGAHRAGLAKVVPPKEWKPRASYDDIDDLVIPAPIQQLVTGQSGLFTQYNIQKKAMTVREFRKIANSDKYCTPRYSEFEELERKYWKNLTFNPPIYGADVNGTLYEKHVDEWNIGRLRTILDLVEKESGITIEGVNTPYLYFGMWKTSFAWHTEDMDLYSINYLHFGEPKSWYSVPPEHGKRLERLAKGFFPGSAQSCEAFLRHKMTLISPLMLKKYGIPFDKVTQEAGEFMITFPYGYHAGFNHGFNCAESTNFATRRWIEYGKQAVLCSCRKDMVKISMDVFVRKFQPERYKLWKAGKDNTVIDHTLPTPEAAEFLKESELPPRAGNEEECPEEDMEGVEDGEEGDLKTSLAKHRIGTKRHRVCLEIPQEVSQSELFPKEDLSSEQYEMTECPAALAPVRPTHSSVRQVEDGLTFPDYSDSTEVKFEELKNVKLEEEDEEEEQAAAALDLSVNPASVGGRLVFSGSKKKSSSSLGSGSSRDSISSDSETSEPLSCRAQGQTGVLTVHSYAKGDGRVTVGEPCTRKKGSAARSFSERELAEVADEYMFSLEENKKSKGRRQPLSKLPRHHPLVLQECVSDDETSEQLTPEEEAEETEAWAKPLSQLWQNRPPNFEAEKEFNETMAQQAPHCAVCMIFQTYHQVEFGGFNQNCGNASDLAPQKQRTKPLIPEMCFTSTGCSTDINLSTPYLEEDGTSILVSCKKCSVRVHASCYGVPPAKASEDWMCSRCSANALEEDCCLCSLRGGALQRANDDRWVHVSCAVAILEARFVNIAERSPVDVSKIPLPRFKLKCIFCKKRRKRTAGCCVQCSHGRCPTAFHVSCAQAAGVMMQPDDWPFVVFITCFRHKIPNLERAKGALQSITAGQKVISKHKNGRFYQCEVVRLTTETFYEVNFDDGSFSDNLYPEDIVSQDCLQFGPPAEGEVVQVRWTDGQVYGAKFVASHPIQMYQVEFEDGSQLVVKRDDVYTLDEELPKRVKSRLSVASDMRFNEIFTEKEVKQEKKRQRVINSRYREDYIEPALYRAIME

[2] = target: T2, Lysine-specific demethylase 4C (Homo sapiens, UniProt Q9H3R0); experiment: Inhibition of recombinant His-tagged JMJD2C expressed in Escherichia coli Rosetta 2 (DE3) pLysS cells by formaldehyde dehydrogenase-coupled assay
T2 sequence (Q9H3R0 whole entry): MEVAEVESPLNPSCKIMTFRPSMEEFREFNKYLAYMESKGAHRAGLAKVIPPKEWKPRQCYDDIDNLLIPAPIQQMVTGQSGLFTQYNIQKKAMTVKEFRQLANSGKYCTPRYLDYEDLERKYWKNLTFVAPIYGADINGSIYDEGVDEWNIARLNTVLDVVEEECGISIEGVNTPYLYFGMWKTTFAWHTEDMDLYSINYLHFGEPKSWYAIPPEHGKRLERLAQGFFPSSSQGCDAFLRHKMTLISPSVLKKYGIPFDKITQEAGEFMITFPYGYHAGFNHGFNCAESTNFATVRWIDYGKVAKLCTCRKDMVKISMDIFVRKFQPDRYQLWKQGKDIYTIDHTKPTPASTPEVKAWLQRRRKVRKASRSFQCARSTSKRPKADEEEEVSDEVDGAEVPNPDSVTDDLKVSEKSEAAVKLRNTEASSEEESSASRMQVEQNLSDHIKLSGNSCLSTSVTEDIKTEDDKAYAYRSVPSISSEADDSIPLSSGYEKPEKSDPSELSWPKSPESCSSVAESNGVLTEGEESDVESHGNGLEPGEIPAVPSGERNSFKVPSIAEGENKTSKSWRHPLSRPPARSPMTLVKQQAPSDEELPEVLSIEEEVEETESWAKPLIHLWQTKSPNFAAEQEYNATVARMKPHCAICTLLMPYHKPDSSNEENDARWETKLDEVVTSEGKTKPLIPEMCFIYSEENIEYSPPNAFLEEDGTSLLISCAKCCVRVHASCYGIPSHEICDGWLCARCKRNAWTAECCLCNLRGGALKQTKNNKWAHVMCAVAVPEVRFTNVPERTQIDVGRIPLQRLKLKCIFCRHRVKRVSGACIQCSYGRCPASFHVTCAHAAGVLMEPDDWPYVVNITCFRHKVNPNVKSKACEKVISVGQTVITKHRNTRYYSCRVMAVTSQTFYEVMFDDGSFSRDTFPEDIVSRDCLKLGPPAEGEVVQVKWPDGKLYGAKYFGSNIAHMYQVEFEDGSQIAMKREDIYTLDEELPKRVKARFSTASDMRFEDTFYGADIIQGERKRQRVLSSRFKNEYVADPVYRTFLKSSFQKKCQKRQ

[3] = target: Prolyl hydroxylase EGLN2 (Homo sapiens, UniProt Q96KS0); experiment: Inhibition of human recombinant PHD1 expressed in Sf9 cells by time-resolved fluorescence assay
Sequence of Prolyl hydroxylase EGLN2 (Q96KS0 whole entry): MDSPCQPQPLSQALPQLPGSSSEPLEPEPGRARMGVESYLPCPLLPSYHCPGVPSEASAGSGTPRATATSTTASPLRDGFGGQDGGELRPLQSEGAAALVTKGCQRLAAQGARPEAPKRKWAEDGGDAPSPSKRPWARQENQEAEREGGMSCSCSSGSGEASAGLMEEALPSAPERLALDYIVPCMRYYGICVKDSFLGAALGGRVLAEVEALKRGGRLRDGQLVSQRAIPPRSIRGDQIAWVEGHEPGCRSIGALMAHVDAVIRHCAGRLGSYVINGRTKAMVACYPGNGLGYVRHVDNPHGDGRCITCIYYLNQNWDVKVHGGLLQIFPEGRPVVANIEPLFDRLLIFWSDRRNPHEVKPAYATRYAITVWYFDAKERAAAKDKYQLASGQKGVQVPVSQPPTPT

[4] = target: Egl nine homolog 1 (Homo sapiens, UniProt Q9GZT9); experiment: Inhibition of human recombinant PHD2 expressed in Sf9 cells by time-resolved fluorescence assay
Sequence of Egl nine homolog 1 (Q9GZT9 whole entry): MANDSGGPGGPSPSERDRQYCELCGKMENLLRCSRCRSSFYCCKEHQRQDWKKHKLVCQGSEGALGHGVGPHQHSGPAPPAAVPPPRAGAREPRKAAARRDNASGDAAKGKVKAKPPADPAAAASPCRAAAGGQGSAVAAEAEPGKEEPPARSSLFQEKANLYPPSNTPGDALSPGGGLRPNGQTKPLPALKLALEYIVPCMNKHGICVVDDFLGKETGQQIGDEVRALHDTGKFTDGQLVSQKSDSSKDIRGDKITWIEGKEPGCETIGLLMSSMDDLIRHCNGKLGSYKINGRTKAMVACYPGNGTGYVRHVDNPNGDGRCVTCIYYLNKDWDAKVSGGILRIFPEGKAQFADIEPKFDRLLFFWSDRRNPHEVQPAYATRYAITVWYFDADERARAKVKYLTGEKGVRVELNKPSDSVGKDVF

[5] = system: LNCaP; experiment: Cytotoxicity against human LNCAP cells expressing JMJD2C at 30 uM after 72 hrs by Alamar blue assay; format: functional, cell-based
[6] = system: LNCaP; experiment: Cytotoxicity against human LNCAP cells expressing JMJD2C at 100 uM after 72 hrs by Alamar blue assay; format: functional, cell-based
[7] = system: PC-3; experiment: Cytotoxicity against human PC3 cells at 30 uM after 72 hrs by Alamar blue assay; format: functional, cell-based
[8] = system: KYSE-150; experiment: Cytotoxicity against human KYSE-150 cells at 30 uM after 72 hrs by Alamar blue assay; format: functional, cell-based
[9] = system: HCT-116; experiment: Cytotoxicity against human HCT116 cells at 30 uM after 72 hrs by Alamar blue assay; format: functional, cell-based
[10] = system: LNCaP; experiment: Cytotoxicity against human LNCAP cells expressing JMJD2C after 72 hrs by Alamar blue assay; format: functional

| SMILES | IC50 [1] [µM] | IC50 [2] [µM] | IC50 ([3]; read-out: IC50) [µM] | IC50 [4] [µM] | other results |
| --- | --- | --- | --- | --- | --- |
| O=C(O)CNC(=O)C(=O)O [N-OXALYLGLYCINE] | 250 | 500 | 2.1 |  |  |
| CN(C)CCCCCCCCCCCC(=O)N(O)CCC(=O)O | 22 | 8.8 |  |  |  |
| CC(C)CCCCCC(=O)N(O)CCC(=O)O | 120 | 74 |  |  |  |
| CN(C)CCCCCCCC(=O)N(O)CCC(=O)O | 6 | 1.5 | > 100 | > 100 |  |
| CCCCN(C)CCCCCCCCC(=O)N(O)CCC(=O)O | 3.2 |  | > 100 | > 100 |  |
| CN(C)CCCCCC(=O)N(O)CCC(=O)O | 17 | 10 |  |  |  |
| COC(=O)CCN(O)C(=O)CCCCCCCCN(C)C |  |  |  |  | Activity [5]: inactive; Activity [6]: inactive; Activity [7]: inactive; Activity [8]: inactive; Activity [9]: inactive |
| CN(CCCCCCCCC(=O)N(O)CCC(=O)O)Cc1ccccc1 | 2 | 1.3 |  |  |  |
| CNCCCCCCCCC(=O)N(O)CCC(=O)O | 4.4 | 1.7 |  |  |  |
| CN(C)CCCCCCCCCCC(=O)N(O)CCC(=O)O | 11 | 5.2 |  |  |  |
| CN(C)CCCCCCCCCC(=O)N(O)CCC(=O)O | 5.5 | 1.6 | > 100 | > 100 |  |
| O=C(O)c1ccnc(C(=O)O)c1 |  |  |  |  | IC50 [3]: 1.5 µM |
| CN(C)CCCCCCCCC(=O)N(O)CCC(=O)O | 3 | 1 | > 100 | > 100 | Activity [5]: inactive; Activity [6]: inactive |
| N[C@@H]1C[C@H]1c1ccc(OCC[C@H](NC(=O)c2ccccc2)C(=O)NCc2ccccc2)cc1 |  |  |  |  | GI50 [10]: 36 µM |
| CN(C)CCCCCCCCN(O)C(=O)CCC(=O)O | 8.1 | 2 | > 100 | > 100 |  |
| CN(C)CCCCCCC(=O)N(O)CCC(=O)O | 8.7 | 2.7 |  |  |  |
| COC(=O)c1ccnc(C(=O)OC)c1 |  |  |  |  | Activity [5]: inactive; Activity [6]: inactive; Activity [7]: inactive; Activity [9]: inactive |
| CC(=O)N(O)CCC(=O)O | 14 | 34 | > 100 | > 100 |  |
